Legend:
[1] = system: Bacillus cereus ŁOCK 0807; test: MIC determination; format: cell-based; details: Bacillus cereus ŁOCK 0807; 18 h
[2] = system: Bacillus subtilis ATCC 6633; test: MIC determination; format: cell-based; details: 18 h
Procedure, shortened: (§1)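 Agar well-diffusion on Mueller–Hinton agar, inoculum 1.5 × 10^8 CFU mL^−1 (McFarland 0.5), per EUCAST. Compounds in DMSO were added to 10 mm wells, and plates were incubated 18 h at 30 °C (Bacillus subtilis) or 37 °C (others). MIC (μg mL^−1) = lowest concentration preventing growth; three independent replicates.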

[3] = system: Enterococcus faecalis ATCC 29212; test: MIC determination; format: cell-based; details: E. faecalis ATCC 29212; 18 h
Procedure, shortened: as §1

[4] = system: Escherichia coli ATCC 10530; test: MIC determination; format: cell-based; details: Escherichia coli ATCC 10530; 18 h
Procedure, shortened: as §1

[5] = system: Salmonella typhimurium ATCC 14028; test: MIC determination; format: cell-based; details: S. typhimurium ATCC 14028, 18 h
Procedure, shortened: as §1

[6] = system: Staphylococcus aureus ATCC 25923; test: MIC determination; format: cell-based; details: S. aureus ATCC 25923, 18 h
Procedure, shortened: as §1

[7] = system: Staphylococcus aureus ATCC 6538; test: MIC determination; format: cell-based; details: S. aureus ATCC 6538; 18 h
Procedure, shortened: as §1

[8] = system: Staphylococcus epidermidis ATCC 12228; test: MIC determination; format: cell-based; details: S. epidermidis ATCC 12228; 18 h
Procedure, shortened: as §1

[9] = system: S. epidermidis ATCC 12228; test: Diffusion-well method, inhibition zones; format: cell-based, Staphylococcus epidermidis; details: 500 µg/mL, wells 10 mm
Method: (§2) The antibacterial activity of tested samples was assessed against both gram-positive bacteria (Staphylococcus aureus ATCC 25923, Staphylococcus aureus ATCC 6538, Staphylococcus epidermidis ATCC 12228, Enterococcus faecalis ATCC 29212, Listeria monocytogenes ATCC 19115, Bacillus subtilis ATCC 6633, Bacillus cereus ATCC 10876) and gram-negative bacteria (Escherichia coli ATCC 10530, Salmonella typhimurium ATCC 14028). Antibacterial properties were evaluated using both the dilution method (employing DMSO and 96-well plates) and the diffusion-well method (using Mueller Hinton Agar, Merck, Germany).
(§3) 24 hour bacterial cultures with a density of 1–2 × 10^8 CFU mL^−1 were plated (0.1 mL) on Mueller–Hinton Agar (Merck, Germany). Subsequently, wells with a diameter of 10 mm were cut out from and filled with 100 μL of the tested compound at a concentration of 10–500 μg mL^−1 (diluted in DMSO). After an 18-hour incubation at either 30 °C (for Bacillus ssp.) or 37 °C (for other tested microorganisms), the inhibition zones around the wells were measured, and the results were expressed in millimetres (Table S9 ^†).

[10] = system: B. cereus ŁOCK 0807; test: Diffusion-well method, inhibition zones; format: cell-based, Bacillus cereus; details: 500 µg/mL, wells 10 mm
[11] = system: S. Typhimurium ATCC 14028; test: Diffusion-well method, inhibition zones; format: cell-based, Salmonella typhimurium; details: 500 µg/mL, wells 10 mm
Method: as §2, §3

With NC(=NN=Cc1ccccc1)c1cncc(Cl)n1.O.O=[N+]([O-])[O-].[Ag+] [Complex 1, AgL1NO3 × H2O] the MIC [1] was 50 µg/mL, the MIC [2] was 50 µg/mL and the MIC [3] was 50 µg/mL. For the same compound, the MIC [4] was under 10 µg/mL, the MIC [5] was under 10 µg/mL and the MIC ([5]; listed as 1) was under 10 µg/mL. The MIC [6] was under 10 µg/mL, the MIC ([6]; listed as 1) was under 10 µg/mL and the MIC [7] was under 10 µg/mL. For the same compound, the MIC [8] was 10 µg/mL, the Inhibition zone [9] was 18 mm and the Inhibition zone [10] was 17 mm. It also gave an Inhibition zone [11] of 17 mm.

From paper PMC12150283, “Synthesis of new Ag(I) and Cd(II) hydrozanomide-based complexes with antibacterial and anticancer properties” (RSC Advances, 2025)
